Results taken from patent US20200190172A1, “METHOD FOR DIAGNOSING/DETERMINING THE EFFECTIVENESS OF TREATMENT FOR DEPRESSION” (Centre National De La Recherche Scientifique, priority 2016, published 2020).
Where no end group is shown, it is not given here.

B1: 1-16 PE (pro-spadin) (peptide)
peptide: QDRLDAPPPPAAPLPR
B2: 12-27 PE (peptide)
peptide: APLPRWSGPIGVSWGL
B3: spadin 12-28 PE (peptide)
peptide: APLPRWSGPIGVSWGLR
B4: 22-28 PE (peptide)
peptide: GVSWGLR
B5: Propeptide (PE) 44AA (peptide)
peptide: QDRLDAPPPPAAPLPRWSGPIGVSWGLRAAAAGGAFPRGGRWRR
B6: 14-25 PE (peptide)
peptide: LPRWSGPIGVSW

Experiments:
[1] = test system: anti-spadin antibodies (AB1 polyclonal antibody); assay: AlphaLISA competition assay: biotinylated spadin / anti-spadin antibody displaced by peptides; assay type: binding, rabbit; settings: for recognition by the anti-spadin antibodies (AB1): AlphaLISA, FIG. 1A-1C; for IC50: competition with 10 nM biotinylated spadin, antibody 1:1000
Description: The antibody used was the AB1 antibody, as mentioned above.
When two microbeads (acceptors and donors) were in close proximity, the signal was produced by a molecular interaction between the binding partners on the beads. The propeptide present in the serum sample was able to interfere with this interaction leading to competition. […] After the addition of donor and acceptor beads and an additional incubation for 2 hours at room temperature, the plates were read using an Enspire reader (Perkin). […] The quantity of propeptide was determined from its signal percent inhibition and calculated using the standard curve.

mice = assay: Porsolt Forced Swim Test (FST); assay type: in vivo, mice (C57BL/6J); settings: for immobility time compared to saline solution: FST, final 4 min of 6 min, p<0.0001 spadin, 12-27 PE, 22-28 PE, p=0.0026 14-25 PE; for Antidepressant activity: Porsolt Forced Swim Test, intravenous injection, mice
Description: The experiments were performed on males of 20-25 g C57BL/6J of 8-10 weeks old (January France Elevage) in accordance with the policies on the welfare and use of laboratory animals set out in European Community Directive 2010/63/EU. The local ethics committee (CIEPAL) has approved the protocols used in this study (Protocol Number 00.893.02).
After intravenous injection of saline solution or various tested peptides, the mice (n=10-12 per group) were placed individually in a cylinder (height: 30 cm, diameter: 15 cm) filled with water to a depth of 12 cm (temperature: 22±1° C.) for 6 min. The total immobility time was recorded during the final 4 min (Porsolt et al., 1977).

AB2 polyclonal antibody = assay: Recognition of PE fragments by AB2 polyclonal antibody (FIG. 1A); assay type: binding, rabbit
Excerpt: FIG. 1: FIG. 1A is a diagram representing the structure/recognition relationships of the antibodies AB1 and AB2 according to the different fragments. […] FIGS. 1B and 1C represent the relative affinities for spadin, PE and analogs assayed by the detection method.
In particular, antibodies AB1 and AB2 were obtained by injecting into two rabbits, namely Oryctolagus cuniculus, spadin coupled to KLH (Keyhole limpet hemocyanin protein) (AB1) or mini-spadin (22-28 PE) coupled to KLH (AB2) on day 0, DO (1 mg), day 7, D7 (1 mg), day 14, D14 (1 mg) and day 29, D29 (1 mg). Blood samples, namely 20 ml, were taken on day 27 (D27) and day 42 (D42). The polyclonal serum was obtained by centrifuging at 1200×g for 10 min. The polyclonal serum corresponding to the supernatant was recovered. The immune response was checked by ELISA for each antibody. The antibodies contained in the serum were kept at −20° C.

TREK-1 potassium channel = biological target: T1, TREK-1 potassium channel (Mus musculus, UniProt P97438); settings: injected intravenously or intraperitoneally into mice; by inhibiting TREK-1 channel activity; cited from earlier work
T1 construct: host or cells: living mice (endogenous channel)
T1 sequence (P97438 1-426): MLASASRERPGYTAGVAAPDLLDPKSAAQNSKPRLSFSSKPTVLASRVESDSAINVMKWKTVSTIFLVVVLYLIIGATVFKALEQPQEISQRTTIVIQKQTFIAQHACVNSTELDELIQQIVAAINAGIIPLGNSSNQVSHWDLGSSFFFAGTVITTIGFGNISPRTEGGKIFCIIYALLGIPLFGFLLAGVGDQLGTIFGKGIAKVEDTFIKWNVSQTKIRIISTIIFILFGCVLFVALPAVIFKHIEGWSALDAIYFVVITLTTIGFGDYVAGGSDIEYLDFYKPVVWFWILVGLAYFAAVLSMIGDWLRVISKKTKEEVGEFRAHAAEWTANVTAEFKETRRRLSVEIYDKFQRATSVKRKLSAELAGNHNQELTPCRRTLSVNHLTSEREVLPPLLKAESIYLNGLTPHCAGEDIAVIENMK

[2] = Stability of PE in human serum (AlphaLISA); assay type: in vitro ADME; settings: serum with or without EDTA, room temperature (22° C.), 24 h
Description: FIG. 3: FIG. 3 is a histogram representing the stability of PE in the human serum. Serums with or without EDTA (n=7 for each matrix) from healthy blood donors were tested for their stability at room temperature for 24 h. The PE concentration for each incubation period was determined using an AlphaLISA assay method. The average concentrations at the different points in time are expressed as an average ±SEM.
The antidepressant activity of the analogs was tested using the FST. […] (Ordinarily ANOVA, F5.54=20.21, **** p<0.0001 for spadin, 12-27 PE and 22-28 fragments compared to saline mice treated with a saline solution, ** p=0.0026 for 14-25 PE fragment compared to saline mice treated with a saline solution; error bars, average ±SEM). […] A study of the stability of PE in human serum was carried out. FIG. 3 is a histogram representing the stability of PE in human serum. Serums with or without EDTA (n=7 for each matrix) from healthy blood donors were tested for their stability at room temperature (22° C.) for 24 h. The PE concentration for each incubation period was determined using an AlphaLISA assay method. In FIG. 3, the average concentrations at the different time points are expressed as an average ±SEM. […] The unpaired t test for the PE concentration between serum and EDTA-serum indicated no significant difference for each time.

[3] = biological target: polyclonal antibodies (AB1) directed against the peptide of sequence … (Spadin); assay: AlphaLISA competition, unlabelled peptide against 10 nM biotinylated spadin on AB1 (1:1000)
[4] = biological target: polyclonal antibodies (AB1) directed against the peptide of sequence … (Spadin); assay: AlphaLISA competition against biotinylated spadin (differs from Table 2)

Molecule	recognition by the anti-spadin antibodies (AB1) [1]	IC50 [1]	Antidepressant activity (mice)	IC50 [3]	further results
C[C@H](N)C(=O)NCC(=O)N[C@H]1CSSC[C@@H](C(=O)O)NC(=O)[C@H](CO)NC(=O)[C@H]([C@@H](C)O)NC(=O)[C@H](Cc2ccccc2)NC(=O)[C@H]([C@@H](C)O)NC(=O)[C@H](CCCCN)NC(=O)[C@H](Cc2c[nH]c3ccccc23)NC(=O)[C@H](Cc2ccccc2)NC(=O)[C@H](Cc2ccccc2)NC(=O)[C@H](CC(N)=O)NC(=O)[C@H](CCCCN)NC1=O [somatostatin-14, reference compound]	not recognized				recognition by the anti-spadin antibodies (AB1) ([1]; listed as somatostatin): incapable of interfering
APLPRWSGPIGVSWGL [12-27 PE, peptide fragment 12 to 27 of the propeptide]	recognized	1.73 nM	showed an antidepressant activity and Yes		recognition by the anti-spadin antibodies (AB1) ([1]; listed as SEQ ID NO 3): binds; immobility time compared to saline solution (mice): shorter immobility time
APLPRWSGPIGVSWGLR [spadin]	recognized	2.5 nM	showed an antidepressant activity		binding by AB2 polyclonal antibody (AB2 polyclonal antibody): bound; recognition by the anti-spadin antibodies (AB1) ([1]; listed as SEQ ID NO 2): binds; immobility time compared to saline solution (mice): shorter immobility time; Antidepressant activity (mice; listed as spadin 12-28 PE): Yes; antidepressant (AD) activities (TREK-1 potassium channel): powerful antidepressant (AD) activities
GVSWGLR [22-28 PE, peptide fragment 22 to 28 of the propeptide]	not recognized	> 1000 nM	Yes		binding by AB2 polyclonal antibody (AB2 polyclonal antibody): bound; recognition by the anti-spadin antibodies (AB1) ([1]; listed as SEQ ID NO 6): sole exception; immobility time compared to saline solution (mice): shorter immobility time
LPRWSGPIGVSW [14-25 PE, peptide fragment 14 to 25 of the propeptide]	recognized	3.44 nM	showed an antidepressant activity and Yes		recognition by the anti-spadin antibodies (AB1) ([1]; listed as SEQ ID NO 4): binds; immobility time compared to saline solution (mice): shorter immobility time
QDRLDAPPPPAAPLPR [1-16 PE, peptide fragment 1 to 16 of the propeptide]	not recognized	> 1000 nM	No		
QDRLDAPPPPAAPLPRWSGPIGVSWGLRAAAAGGAFPRGGRWRR [PE]					stability of PE in human serum [2]: stability of the SLI measurement for 24 hours at room temperature
WSGPI [SEQ ID NO 5]	binds				
B1				> 1000 nM	
B2				1.73 nM	IC50 [4]: 3.44 nM
B3				2.5 nM	
B4				> 1000 nM	
B5				2.18 nM	
B6				3.44 nM	IC50 [4]: 1.73 nM
